Series [1] deals with patients with stable atherosclerotic vascular disease (coronary artery disease, peripheral arterial disease, or both). Briefly: COMPASS trial, efficacy outcomes. In kind it is in vivo, human. Conditions: for participants reported to have atrial fibrillation who had a stroke: 26 of the 392 participants with atrial fibrillation; for primary outcome event of cardiovascular death, stroke, or myocardial infarction, number of patients / primary outcome event of cardiovascular death, stroke, or myocardial infarction, percentage of patients: rivaroxaban alone 5 mg twice daily, mean follow-up 23 months; for primary outcome / major adverse cardiovascular events compared with aspirin alone (in words): compared with aspirin alone 100 mg once daily. The method, then:
Patients were eligible if they provided written informed consent and met the criteria for coronary artery disease, peripheral arterial disease, or both. Patients with coronary artery disease who were younger than 65 years of age were also required to have documentation of atherosclerosis involving at least two vascular beds or to have at least two additional risk factors (current smoking, diabetes mellitus, an estimated glomerular filtration rate (“GFR”)<60 ml per minute, heart failure, or nonlacunar ischemic stroke≥1 month earlier). Exclusion criteria were a high bleeding risk; a recent stroke or previous hemorrhagic or lacunar stroke; severe heart failure; advanced stable kidney disease (estimated GFR<15 ml per minute); the use of dual antiplatelet therapy, anticoagulation, or other antithrombotic therapy; and noncardiovascular conditions deemed by the investigator to be associated with a poor prognosis.
Eligible participants (except those who underwent randomization 4 to 14 days after coronary-artery bypass graft (“CABG”) surgery) entered a run-in phase during which they received a rivaroxaban-matched placebo twice daily and aspirin at a dose of 100 mg once daily. The purpose of the run-in phase was to identify participants who were unwilling or unable to adhere to the trial regimen, who had adverse events, or who were otherwise not suitable for randomization. Patients who underwent randomization 4 to 14 days after CABG surgery were not required to participate in the run-in phase because thrombotic graft occlusion is most common during the first few weeks after surgery and we sought to enroll such patients promptly.
(§1) Study aspirin was enteric-coated.
(§2) Three secondary efficacy outcomes were specified: the composite of ischemic stroke, myocardial infarction, acute limb ischemia, or death from coronary heart disease; the composite of ischemic stroke, myocardial infarction, acute limb ischemia, or cardiovascular death; and death from any cause. Tertiary efficacy outcomes included individual components of the primary and secondary outcomes, as well as hospitalization for cardiovascular causes, revascularization, limb amputation, stent thrombosis, angina, heart failure, venous thromboembolism, resuscitated cardiac arrest, and a new diagnosis of cancer. The net-clinical-benefit outcome was the composite of cardiovascular death, stroke, myocardial infarction, fatal bleeding, or symptomatic bleeding into a critical organ.
All the outcome events in all randomly assigned patients that occurred between randomization and the date of stopping the trial were included in the analysis, according to the intention-to-treat principle. An early stop of both antithrombotic treatment groups for efficacy had not been anticipated, and therefore a strategy for formal testing of secondary outcomes at the interim analysis was not prespecified.
(§3) All reported P values are two-sided.

The test system is the same in series [2]. Briefly: COMPASS trial, net-clinical-benefit outcome. It counts as in vivo, human.
Source text: “Safe” for the methods disclosed herein may also be measured by the net clinical benefit of the inventive method or product compared to administration of aspirin alone. The net clinical benefit outcome consists of cardiovascular death, myocardial infarction, stroke, and fatal or critical organ bleeding.
Because the products and methods of the present invention involve medications that cause the desired reduction in the risk of myocardial infarction, stroke, or cardiovascular death yet also cause undesired bleeding, the “net clinical benefit” of the therapy is important to consider. The “net clinical benefit” composite is a positive benefit risk ratio that was derived using severe bleeding events (intracranial bleeding, fatal bleeding, and critical organ bleeding) as a component of the composite. In clinical studies, the risk of the composite net clinical benefit outcome of cardiovascular death, stroke, myocardial infarction, fatal bleeding or symptomatic bleeding into a critical organ was lower with twice-daily 2.5 mg rivaroxaban combined with once daily 100 mg aspirin (4.7%) than with aspirin alone (100 mg once daily) (5.9%), hazard ratio 0.80.
as §1, §2, §3

The subject of series [3] is patients with stable cardiovascular disease. Conditions: in vivo; cited from earlier work.
Series [4] concerns patients with stable atherosclerotic vascular disease (coronary artery disease, peripheral arterial disease, or both). Conditions: human, in vivo, 23 months. An excerpt:
Adverse events that impact whether the inventive combinations and combination therapy are safe are adverse bleeding events that include, for example, major bleeding, minor bleeding, intracranial bleeding, and symptomatic bleeding into a critical organ. “Major bleeding” as used herein is a modification of the International Society on Thrombosis and Haemostasis (ISTH) criteria for major bleeding and includes fatal bleeding, symptomatic bleeding into a critical organ, bleeding into a surgical site requiring reoperation, and bleeding that led to hospitalization (including presentation to an acute care facility without an overnight stay). Unlike the ISTH criteria, all bleeding that led to presentation to an acute care facility or hospitalization is considered as major.
The COMPASS trial, conducted at 602 centers in 33 countries, is a double-blind, double-dummy, randomized trial using a 3-by-2 partial factorial design and involving patients with a history of stable atherosclerotic vascular disease. […]

Series [5] deals with patients with a recent acute coronary syndrome. Particulars: background of single or dual antiplatelet therapy, cited from earlier work.
Series [6] concerns patients with stable peripheral arterial disease. Conditions: in vivo; cited from earlier work.
The subject of series [7] is patients with stable cardiovascular disease receiving single or dual antiplatelet therapy. Particulars: in vivo; cited from earlier work.
Setting [8] is: rivaroxaban 2.5 mg twice daily + aspirin 100 mg once daily, aspirin alone 100 mg once daily.

“Also recorded” adds a separate entry of the source.

Regarding `CC(=O)Oc1ccccc1C(=O)O` [aspirin alone, acetylsalicylic acid], the “participants reported to have atrial fibrillation who had a stroke” value in series [1] is reported as 11 participants. In series [1] (setting [8]), the “deaths (death from any cause), number” value turned out to be 378 deaths; the “deaths (death from any cause), percentage” value came to 4.1%; the “secondary composite outcome of ischemic stroke, myocardial infarction, acute limb ischemia, or death from coronary heart disease, number of patients” value is on record as 450 patients; the “secondary composite outcome of ischemic stroke, myocardial infarction, acute limb ischemia, or death from coronary heart disease, percentage of patients” value is 4.9%. In addition, in series [1] (setting [8]), the “secondary outcome of ischemic stroke, myocardial infarction, acute limb ischemia, or cardiovascular death, number of patients” value was found to be 516 patients; the “secondary outcome of ischemic stroke, myocardial infarction, acute limb ischemia, or cardiovascular death, percentage of patients” value was 5.7%; the “primary outcome event of cardiovascular death, stroke, or myocardial infarction, number of patients” value is 496 patients; the “primary outcome event of cardiovascular death, stroke, or myocardial infarction, percentage of patients” value was determined as 5.4%. In series [2] (setting [8]), the “composite net-clinical-benefit outcome of cardiovascular death, stroke, myocardial infarction, fatal bleeding, or symptomatic bleeding into a critical organ, number of patients” value is recorded as 534 patients and the “composite net-clinical-benefit outcome of cardiovascular death, stroke, myocardial infarction, fatal bleeding, or symptomatic bleeding into a critical organ, percentage of patients” value stood at 5.9%.

Consider `COC(=O)[C@H](c1ccccc1Cl)N1CCc2sccc2C1` [clopidogrel], for which, in series [3], the “risk of cardiovascular death or death from any cause vs aspirin” value was “no significant difference” and the “risk of major adverse cardiovascular events vs aspirin” value is recorded as “lower risk”.

As to `O=C(NC[C@H]1CN(c2ccc(N3CCOCC3=O)cc2)C(=O)O1)c1ccc(Cl)s1` [rivaroxaban alone, 5-chloro-N-({(5S)-2-oxo-3-[4-(3-oxo-4-morpholinyl)phenyl]-1,3-oxazolidin-5-yl}methyl)-2-thiophenecarboxamide], in series [1], the “participants reported to have atrial fibrillation who had a stroke” value came out at 8 participants and the “primary outcome / major adverse cardiovascular events compared with aspirin alone (in words)” value is recorded as “did not show a significant difference”. Also, the “primary outcome / major adverse cardiovascular events compared with aspirin alone (in words)” value in series [1] (listed as Rivaroxaban) is reported as “not associated with a significant reduction”. The “primary outcome / major adverse cardiovascular events compared with aspirin alone (in words)” value in series [1] (listed as Rivaroxaban alone) was “did not result in a significantly lower risk”. Further, the “hazard ratio for the primary outcome” value in series [1] (compared with aspirin alone, stratified Cox model) is given as 0.90. In series [1] (setting [8]), the “primary outcome event of cardiovascular death, stroke, or myocardial infarction, number of patients” value stood at 448 patients and the “primary outcome event of cardiovascular death, stroke, or myocardial infarction, percentage of patients” value came out at 4.9%. Further, in series [4], the “hazard ratio, major bleeding events (modified ISTH criteria)” value was found to be 1.51. Besides, in series [2] (rivaroxaban alone 5 mg twice daily vs aspirin alone), the “net-clinical-benefit outcome compared with aspirin alone (in words)” value is “not significantly lower; also recorded: did not show a significant difference”. Also, the “rate of major adverse cardiovascular events vs placebo” value in series [5] (2.5 mg twice daily or 5 mg twice daily) is listed as “lower rate”. The mortality vs placebo entry in series [5] (2.5 mg twice daily) was “lower mortality”.

For `CCCSc1nc(N[C@@H]2C[C@H]2c2ccc(F)c(F)c2)c2nnn([C@@H]3C[C@H](OCCO)[C@@H](O)[C@H]3O)c2n1` [ticagrelor], the “rate of major adverse cardiovascular events vs clopidogrel” value in series [6] was “did not result in a significantly lower rate”.

In the case of `CCOC(=O)N[C@@H]1CC[C@@H]2[C@@H](C1)C[C@H]1C(=O)O[C@H](C)[C@H]1[C@H]2/C=C/c1ccc(-c2cccc(F)c2)cn1` [vorapaxar], in series [7], the mortality vs placebo result is given as “no significant between-group difference”, the “rate of major adverse cardiovascular events vs placebo” value is reported as “lower rate” and the “rate of moderate or severe bleeding vs placebo” value is reported as “higher rate”.

These data come from US10828310B2, “Reducing the risk of cardiovascular events” (Bayer Pharma Aktiengesellschaft, priority 2018, dated 2020).
